Data set [1] concerns glycine modulatory site of the NMDA receptor-channel complex. In kind it is cell-based, rat. Particulars: for Effect on glycine-potentiated NMDA-induced current: gabapentin 10 μM with glycine 1 μM and strychnine 10 μM, reversed on washing; for Effect on glycine-potentiated NMDA-induced current / Effect on NMDA-induced current in the absence of glycine: acetic acid; for Effect on NMDA-induced current in the absence of glycine: gabapentin 10 μM, bath application, reversed on washing for four minutes. The procedure: Whole-cell patch clamp techniques were employed to investigate the effects of the antiepileptic drug, gabapentin, upon the responses of striatal neurons in dissociated culture to NMDA.
Striata were aseptically dissected from 16-day-old rat fetuses and mechanically triturated in enzyme-free Puck's saline (Gibco, UK). The resulting suspension was diluted to 1×10^6 cells/mL using freshly prepared medium. The medium was composed of Minimal essential medium with Earle's salts and included Fetal calf serum (5% v/v), Horse serum (5% v/v), L-Glutamine (2 mM), Insulin ([…]), and HEPES (5 mM) buffer (all Gibco, UK).
The cells were plated onto Poly-L-ornithine ([…]; Sigma) coated glass coverslips (diameter 13 mm) and incubated at 37° C. in a humidified atmosphere of 95% Air/5% CO2.
After seven days, the media was replaced with freshly prepared media containing (+)-5-fluoro-deoxyuridine (10 μM; Sigma) to inhibit the proliferation of nonneuronal elements. Cultures were subsequently fed twice weekly.
Patch electrodes with ohmic resistances of 6-10 M .OMEGA. were filled with an intracellular solution of the following composition (all mM); CsF 140.0, CaCl2 0.5, NaCl 1.0, K-EGTA 5.0 and HEPES 10.0. All recordings were made at 20°-22° C. using a List EPC7 amplifier and the resulting signal was filtered at 10 KHz. Fast and slow transient capacity compensation was employed, and cells were voltage clamped at a holding potential of -70 mV, unless otherwise stated.
Drugs were dissolved to a known concentration in the extracellular solution and were applied via the perfusion system. NMDA was applied via the perfusion system, or by rapid pressure ejection. All drugs were obtained from Sigma, except gabapentin which was synthesized at Goedecke (Warner-Lambert) Germany.

In data set [2] the test system is NMDA receptor-channel complex. Kind of data set: Intracellular recording of NMDA-induced depolarization, CA1 hippocampal neurones in brain slices. The class given is cell-based, rat. To be noted: gabapentin 300 μM. The method, then:
(§1) Intracellular recordings were made from neurones of either paraventricular thalamus (n =8, 7 slices) or CA1 region of the hippocampus (n =5, 5 slices) contained in […] rat brain slices. NMDA applied via the perfusion system, produced a concentration-dependent depolarization of all neurones tested. In every case but one, control response to NMDA was reduced by a concomitant application of gabapentin (300 μM). The concentration-response curves for NMDA in the presence and absence of gabapentin show a noncompetitive interaction of gabapentin with NMDA receptor-channel complex.
(§2) Coronal slices of rat brain at the level of the ventromedial hypothalamus were chosen since these contain both hippocampus and paraventricular thalamus (PVT). Slices were perfused in normal (1.3 mM magnesium) artificial cerebrospinal fluid (ACSF) at 3 mL/min. Conventional intracellular recording techniques were employed, using 1M potassium acetate-filled electrodes pulled on a Brown-Flaming microelectrode puller type P-87.
Drugs were made up as stock solutions in distilled water (NMDA 50 mM; gabapentin 100 mM) and stored frozen prior to use. The required concentrations of each drug were obtained by direct dilution with ACSF at the time of the experiment. Control dose-response curves for NMDA were obtained either in the presence or absence of tetrodotoxin (TTX). […]

Data set [3] has as its system seizures elicited by 4-aminobutanoic acid (GABA) synthesis or GABA receptor antagonists. To be noted: mice; cited from earlier work.
Data set [4] relates to seizures elicited by NMDA. Particulars: in vivo; cited from earlier work.
For data set [5], the system named is GABA. To be noted: cited from earlier work.
The test system of data set [6] is neuronal GABA uptake. Particulars: cited from earlier work.
The test system of data set [7] is NMDA receptor-channel complex. The data set can be described thus: Intracellular recording of NMDA-induced depolarization, paraventricular thalamus (PVT) neurones in brain slices. In kind it is cell-based, rat. To be noted: gabapentin 300 μM. The method, then:
as §1, §2
Drugs were made up as stock solutions in distilled water (NMDA 50 mM; gabapentin 100 mM) and stored frozen prior to use. The required concentrations of each drug were obtained by direct dilution with ACSF at the time of the experiment. Control dose-response curves for NMDA were obtained either in the presence or absence of tetrodotoxin (TTX). NMDA was applied to a 30-second period, with at least five minutes between successive doses. Gabapentin was added to the same NMDA-containing solutions and the dose-response curves repeated. Experiments were also performed using repeated single doses of NMDA to ensure that the effects of gabapentin were not due to rundown of the NMDA response.

The conditions of data set [8]: in vivo; cited from earlier work.
The conditions of data set [9]: in vivo; cited from earlier work. This is another data set of the same source.
Data set [10] deals with GABAB. To be noted: cited from earlier work.

Values joined by “and” are separate entries in the source; they are usually repeats but may differ in a detail not shown here. Equal entries are not always repeated. Where two headings read alike, the source gives them in different places.

In the case of `NCC(=O)O` [Glycine, reference compound], the “Effect of glycine on NMDA-induced peak current” value in data set [1] is on record as “potentiation of the NMDA induced peak current”. Further, the “Effect of glycine on sustained inward current produced by bath application of NMDA” value in data set [1] (NMDA 100 μM bath application, glycine 1 μM) was “markedly potentiated”. Further, the “Peak Inward Current (pA), relative to NMDA = 100%” value in data set [1] (striatal neurons) was 589 ± 156% and 713 ± 260%.

Regarding `NCC1(CC(=O)O)CCCCC1` [gabapentin, 1-aminomethyl-cyclohexane acetic acid], in data set [2] (CA1 hippocampal neurones, more evident as NMDA concentration increased), the “Effect on NMDA-induced depolarization” value was “reduction in the NMDA-induced depolarization”. Also, the “Nature of the block of the NMDA response” value is on record as “noncompetitive” in data set [2] (NMDA dose-response curves, hippocampus (FIG. 8B)) and “noncompetitive” in [7] (NMDA dose-response curves, PVT neurones (FIG. 6B)). In [3], the Protection from seizures entry is given as “protect mice from seizures”. Besides, in data set [4], the “Latency of onset of seizures elicited by NMDA” value is “prolong the latency of onset of seizures”. For the same compound, in data set [5], the “Displacement of GABA binding” value is reported as “does not displace”. For the same compound, in data set [6], the “Interference with neuronal GABA uptake” value is “does not interfere with neuronal GABA uptake”. Also, the “Reduction of NMDA depolarization” value in data set [7] (100 μM NMDA for 30 s, TTX present, thalamic neurones (FIG. 5)) was about 60%. Also, the “Effect on response (depolarization) to NMDA” value in [7] (high (30 to 50 μM) concentrations of NMDA, PVT neurones) is “reduced”. Further, the “Peak Inward Current (pA), relative to NMDA = 100%” value in data set [1] (Table 2, NMDA + 10 μM GABA-P, no exogenous glycine, n = 4) was determined as 305 ± 88%; in [1] (Table 2, NMDA after 'wash' of 10 μM GABA-P, n = 4), 106 ± 9%; in data set [1] (Table 3, 'wash' of GABA-P, NMDA + 1 μM Glycine + 10 μM Strychnine, n = 3) it was 257 ± 418%; in data set [1] (Table 3, NMDA + 1 μM Glycine + 10 μM Strychnine + 10 μM GABA-P, n = 3) it was 201 ± 24%. The “Effect on glycine-potentiated NMDA-induced current” value in [1] was “antagonism of the glycine-induced potentiation of the NMDA-induced current”; in [1] (listed as Gabapentin) it was “antagonism of the glycine-potentiated NMDA current”. For the same compound, the “Effect on NMDA-induced current in the absence of glycine” value in data set [1] is given as “potentiation of the NMDA-induced current”; in data set [1] (listed as Gabapentin), “reversible potentiation of the NMDA-induced current”. The Tolerability result in [8] was “well tolerated”. In addition, in data set [8], the Toxicity entry is given as “relatively nontoxic”. Further, the “Metabolism in the body” value in data set [9] is reported as “not metabolized in the body”. Further, the “Displacement of GABAB binding” value in data set [10] is listed as “does not displace”.

These data come from patent US5084479A, “Novel methods for treating neurodegenerative diseases” (priority 1990, dated 1992).
